From ChEMBL document CHEMBL5528062 (J Med Chem, 2024) come the findings set out here.

The subject of series [1] is Mycobacterium tuberculosis. The experiment in a line: Antibacterial activity against Mycobacterium tuberculosis H37Rv assessed as inhibition of bacterial growth incubated for 6 days by microplate alamar blue assay. It counts as functional. As to conditions: 144 h, time 6 day. A general note: Resazurin is reduced to fluorescent resorufin, in cell work by metabolically active cells.

The next series has as its system Mycobacterium avium. The experiment in a line: Antibacterial activity against Mycobacterium avium ATCC 25291 assessed as inhibition of bacterial growth incubated for 2 to 3 weeks by resazurin dye based assay. It counts as functional. As to conditions: time 2-3 weeks.
The subject of series [2] is Mycobacterium tuberculosis. The experiment in a line: Antimycobacterial activity against Mycobacterium tuberculosis H37Rv assessed as reduction in bacterial cell growth by resazurin reduction method. It counts as functional.
Series [3] can be described thus: Aqueous solubility of compound at pH 2.0 measured for 1 hr by UV-plate reader analysis. Conditions: buffer. It is filed as physicochemical.
Series [4] can be described thus: Aqueous solubility of compound in PBS at pH 6.5 incubated for 24 hrs by HPLC-MS/MS analysis. It counts as physicochemical.
The subject of series [5] is Mycolicibacterium smegmatis. The experiment in a line: Antimycobacterial activity against Mycobacterium smegmatis ATCC607 assessed as inhibition of bacterial growth measured after 48 hrs by broth microdilution method. It counts as functional. A general note: Dilution methods test growth across graded concentrations, often in twofold steps.
The nature of series [6]: Aqueous solubility of compound at pH 7.4 measured for 1 hr by UV-plate reader analysis. It counts as physicochemical. As to conditions: buffer.
For series [7], the system named is Mycobacterium tuberculosis. Nature of the series: Antibacterial activity against Mycobacterium tuberculosis H37Rv assessed as bacterial growth inhibition. It is filed as functional.
Series [8] deals with Mycobacterium tuberculosis. The experiment in a line: Antimycobacterial activity against Mycobacterium tuberculosis H37Rv assessed as inhibition of bacterial growth incubated for 7 to 14 days by MABA assay. It counts as functional. As to conditions: time 7-14 day.
Series [9] can be described thus: Aqueous solubility of compound at pH 7.4. It counts as physicochemical. As to conditions: buffer.
Series [10] concerns Mycobacterium tuberculosis. Nature of the series: Antimycobacterial activity against Mycobacterium tuberculosis K204 assessed as inhibition of bacterial growth measured after 6 days by alamar blue dye based assay. It is filed as functional. Conditions: K204, 144 h, time 6 day.
In series [11] the test system is Mycobacterium tuberculosis. The experiment in a line: Antibacterial activity against Mycobacterium tuberculosis H37Rv assessed as reduction in microbial growth. It counts as functional.
The nature of series [12]: Aqueous solubility of compound at pH 7.4 by HPLC-MS/MS analysis. It is filed as physicochemical. Conditions: buffer.
In series [13] the test system is Mycolicibacterium smegmatis. Nature of the series: Antimycobacterial activity against Mycobacterium smegmatis 700084 assessed as inhibition of microbial growth incubated for 48 hrs by resazurin dye based broth microdilution method. It is filed as functional.
A further series relates to Acinetobacter baumannii. The experiment in a line: Antibacterial activity against Acinetobacter baumannii harboring RpoB H535Q mutant assessed as fold change in MIC incubated for 20 hrs by CLSI based microbroth dilution method. It counts as functional.
The subject of series [14] is Mycobacterium tuberculosis. Nature of the series: Antimycobacterial activity against Mycobacterium tuberculosis H37Rv mc2 6206 assessed as inhibition of bacterial growth measured after 7 days by visual analysis. It counts as functional. Conditions: H37Rv mc2 6206, 168 h, time 7 day.

In brackets after ≈: the same amount, converted by molar mass. Where only a bound is given, the exact number is not on record here.

The term MIC denotes the smallest concentration in the dilution series that meets the test's criterion for growth inhibition. Turning to `COc1nc2ccc(C#N)cc2cc1[C@H](c1ccccc1)[C@](O)(CCN(C)C)c1ccccc1`, the MIC in series [1] was 0.09 µg/mL (≈ 0.199 µM). On to `O=[N+]([O-])c1cn2c(n1)OC[C@@H](OCc1ccc(-c3ccc(OC(F)(F)F)cc3)cc1)C2`, for which, in the series on Mycobacterium avium, the MIC is 0.035 µM (≈ 0.0152 µg/mL). As a reminder, the solubility is the concentration that dissolves in the medium under given conditions. With `C[C@]1(CN2CCc3nc(-c4ccccc4)ccc3C2)Cn2cc([N+](=O)[O-])nc2O1`, the MIC in series [2] is < 0.031 µg/mL. The same compound had a solubility at 1 h in [3] of 143 µM (≈ 56.2 µg/mL). This compound gave a solubility at 24 h in series [4] of 9.41 µM (≈ 3.68 µg/mL).

Turning to `O=[N+]([O-])c1cn2c(n1)OC[C@@H](OCc1ccc(-c3ccc(OC(F)(F)F)c(F)c3)cc1)C2`, in the series on Mycobacterium avium, the MIC worked out at 0.03 µM (≈ 0.0136 µg/mL).

As for `COc1nc2ccc(Br)cc2cc1[C@@H](c1ccccc1)[C@@](O)(CCN(C)C)c1cccc2ccccc12` [BEDAQUILINE], the MIC in series [5] is 0.015 µg/mL (≈ 0.027 µM).

As for `C[C@]1(CN2CCc3nc(-c4cc(F)c(F)c(F)c4)ccc3C2)Cn2cc([N+](=O)[O-])nc2O1`, the MIC in [2] was determined as 0.08 µg/mL (≈ 0.18 µM). Besides, the solubility at 1 h in series [3] is > 200 µM. Further, in [4], the solubility at 24 h was < 1 µM. In series [6], `C[C@]1(COc2ccc(S(=O)(=O)N3CCOCC3)cc2)Cn2cc([N+](=O)[O-])nc2O1` gave a solubility at 1 h of 20 µg/mL (≈ 47.1 µM). The MIC in series [7] stood at 0.37 µg/mL (≈ 0.872 µM).

For `O=[N+]([O-])c1cn2c(n1)OC[C@@H](OCc1ccc(-c3ccc(OC(F)(F)F)cc3)nc1)C2` [TBA-354], the MIC in [8] stood at 0.005 µM (≈ 0.00218 µg/mL). In [9], this compound had a solubility of 2.3 µg/mL (≈ 5.27 µM).

For the compound `O=[N+]([O-])c1cn2c(n1)OC[C@@H](OCc1ccn(-c3ccc(OC(F)(F)F)cc3)n1)C2`, the MIC in series [10] amounted to 0.05 µM (≈ 0.0213 µg/mL). Take `C[C@]1(COc2ccc(-n3cc(COc4ccc(OC(F)(F)F)cc4)nn3)cc2)Cn2cc([N+](=O)[O-])nc2O1`: in series [6], the solubility at 1 h is < 1 µg/mL. Moreover, in [11], the MIC turned out to be 0.12 µg/mL. `Cn1nc(-c2ccc(OC(F)(F)F)cc2)cc1CO[C@@H]1COc2nc([N+](=O)[O-])cn2C1`: the MIC in [10] was 0.06 µM (≈ 0.0264 µg/mL). Moreover, in [12], the solubility came out at 23 µg/mL (≈ 52.4 µM). With `O=[N+]([O-])c1cn2c(n1)OC[C@@H](OCc1ccc(OC(F)(F)F)cc1)C2` [PRETOMANID], the MIC amounted to 0.03 µg/mL (≈ 0.0835 µM) in series [5] and 0.03 µg/mL in series [13]. Moreover, the “fold change (FC)” value with Acinetobacter baumannii was >13. Regarding `O=[N+]([O-])c1cn2c(n1)OC[C@@H](OCc1nnn(-c3ccc(OC(F)(F)F)cc3)n1)C2`, the MIC in series [10] was 0.035 µM (≈ 0.015 µg/mL).

`C[C@]1(CN2CCc3nc(-c4ccc(F)cc4)ccc3C2)Cn2cc([N+](=O)[O-])nc2O1`: the MIC in [2] is 0.25 µg/mL (≈ 0.611 µM). Further, the solubility at 1 h in series [3] was 130 µM (≈ 53 µg/mL). For the same compound, the concentration in solution in series [4] (solubility at 24 h) came to 3.35 µM (≈ 1.37 µg/mL). Turning to `O=[N+]([O-])c1cn2c(n1)OC[C@@H](OCc1ccc(-c3ccc(OC(F)(F)F)c(F)c3)nc1)C2`, the MIC in series [8] was found to be 0.025 µM (≈ 0.0114 µg/mL). The concentration in solution in [9] (solubility) was 3 µg/mL (≈ 6.6 µM). Regarding `O=[N+]([O-])c1cn2c(n1)OC[C@@H](OCc1ccc(-c3ccc(OC(F)(F)F)c(Cl)c3)cc1)C2`, the MIC with Mycobacterium avium was 0.03 µM (≈ 0.0141 µg/mL).

As for `C[C@]1(COc2ccc(N3CCC(Oc4ccc(OC(F)(F)F)cc4)CC3)cc2)Cn2cc([N+](=O)[O-])nc2O1`, the values for the MIC in series [5] and in series [14] were 0.03 µg/mL (≈ 0.0561 µM) and 7 ng/mL (≈ 0.0131 µM), respectively.
